Experimental data published in patent US5310884A (Merck Frosst Canada, Inc., priority 1992, dated 1994).

Experiments:
[1] = target: T1, LTD4 receptor (guinea-pig lung membranes) (Cavia porcellus, UniProt Q2NNR5); test: Saturation binding to guinea-pig lung membranes, Scatchard plot analysis; set-up: Guinea pigs (male; 350 g) were sacrificed by cervical dislocation and the lung tissues removed; from tissue; host or cells: guinea-pig lung (primarily parenchyma), sucrose-gradient membrane fraction
T1 sequence (Q2NNR5 1-340): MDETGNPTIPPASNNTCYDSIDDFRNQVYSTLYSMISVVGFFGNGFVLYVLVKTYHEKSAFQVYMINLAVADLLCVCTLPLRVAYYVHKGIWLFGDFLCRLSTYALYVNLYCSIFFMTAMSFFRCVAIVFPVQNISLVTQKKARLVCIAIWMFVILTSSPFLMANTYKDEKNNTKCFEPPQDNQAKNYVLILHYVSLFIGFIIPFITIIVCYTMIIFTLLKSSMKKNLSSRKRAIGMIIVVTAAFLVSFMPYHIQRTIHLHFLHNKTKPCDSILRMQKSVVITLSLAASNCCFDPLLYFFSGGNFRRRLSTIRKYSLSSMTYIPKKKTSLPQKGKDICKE

[2] = target: T1, LTD4 receptor (guinea-pig lung membranes); test: Rates of association and dissociation of radioligand binding to guinea-pig lung membranes; set-up: Guinea pigs (male; from tissue; host or cells: guinea-pig lung (primarily parenchyma), sucrose-gradient membrane fraction
Procedure: FIG. 3. […] Aliquots (500 μl) were removed and filtered at the required time intervals.

[3] = target: T1, LTD4 receptor (guinea-pig lung membranes); conditions: 60 pM radioligand, 20-30 μg membrane protein
Procedure: Guinea pigs (male; 350 g) were sacrificed by cervical dislocation and the lung tissues removed. All subsequent procedures were performed either on ice or at 4° C. Connective tissue, trachea, large blood vessels and major airways were dissected away and the remaining lung tissue (primarily parenchyma) was finely minced prior to homogenisation in 10 vol of 10 mM HEPES/KOH pH 7.4, containing 0.25 M sucrose, 2 mM EDTA, 2 mM phenylmethylsulphonyl fluoride, 10 μg/ml pepstatin, 10 μg/ml leupeptin and 10 μM E-64, using 5 s bursts of a polytron (Brinkman Instruments). The homogenate was subjected to differential centrifugation at 1000×g for 10 min, 10,000×g for 10 min and 100,000×g for 40 min. The resulting 100,000×g pellets were resuspended in 10 mM HEPES/KOH pH 7.4, containing 10% (w/v) sucrose, at a final protein concentration of 1-2 mg/ml. This tissue suspension was carefully layered over 10 mM HEPES/KOH pH 7.4 containing 40% (w/v) sucrose in a 3:2 (v/v) ratio. The discontinuous sucrose gradient was centrifuged at 83,000×g for 60 min. The membrane fraction located at the interface of the sucrose gradient layers was recovered, diluted 10-fold in 10 mM HEPES/KOH pH 7.4 and further centrifuged at 150,000×g for 40 min. The final membrane pellets were resuspended in 10 mM HEPES/KOH pH 7.4 at a protein concentration of 2-4 mg/ml and stored at […].
Filters were then washed with 16 ml of 10 mM HEPES/KOH, pH 7.4 containing 0.01% (w/v) bovine serum albumin, at 4° C.
FIG. 4. […] Radiolabelled proteins were resolved by SDS-PAGE and visualized by autoradiography. […] In addition, photoaffinity labelled membranes were subjected to immunoprecipitation with RAGpAlb (Lane C) and non-immune rabbit serum (Lane D), as described in the Methods. The migration of molecular weight standards is indicated on the left. FIGS. 5(A)-5(C). […] Results are expressed as percentage of maximum specific binding as a function of CaCl2 concentration. […] Only the results for total binding are shown.
Results are expressed as percentage of maximum specific binding as a function of nucleotide concentration. […] Only the results for total binding are shown.
Results are expressed as percentage of maximum specific binding as a function of cation concentration. […] Only the results for total binding are shown.

[4] = RP-HPLC stability of [125I]Azido-LTD4 under binding assay conditions with guinea-pig lung membrane; assay type: in vitro ADME; conditions: 60 min
Procedure: RP-HPLC was conducted to assess the stability of [^125 I]Azido-LTD4 under binding assay conditions. […] Following a 60 min incubation at room temperature, samples were centrifuged at 150,000×g for 15 min at 4° C. The supernatant (unbound radioligand) was removed and the membrane pellet was resuspended by sonication in 150 μl of RP-HPLC solvent ([…] (v/v) MeOH:H2O:HOAc containing 0.01% 2-mercaptoethanol and 0.5 mM EDTA). The samples were centrifuged at 150,000×g for 15 min at 4° C. and the supernatent removed (bound radioligand). Bound and unbound radioligand fractions (100 μl) were analysed by RP-HPLC using a Nova Pac C18 column (0.39 ×15 cm; Waters Assoc.) eluted isocratically at a flow rate of 1 ml/min with RP-HPLC solvent. The profile of iodinated material from bound and unbound radioligand samples was determined by on-line solid scintillation gamma counting (Berthold HPLC radioactivity monitor LB 506 C1). [^125 I]Azido-LTD4 was identified by […] of non-radioactive [^127 I]Azido-LTD4 monitored by optical density at 280 nm.
FIGS. 2(A) and 2(B) RP-HPLC analysis of [^125 I]Azido-LTD4 stability. RP-HPLC was used to assess the stability of [^125 I]Azido-LDT4 under the conditions routinely employed for binding assays as described in the Methods.

[5] = tested on: 66.2 kDa protein (guinea-pig serum albumin); test: Photoaffinity labelling of 66.2 kDa protein and immunoprecipitation with rabbit anti-guinea-pig albumin antisera; assay type: binding; conditions: lung membranes and guinea-pig serum
Procedure: Samples were incubated for 60 min at room temperature. Aliquots (2×500 μl) were then removed and the bound [^125 I]Azido-LTD4 quantified as described for the filtration binding assays. The residual samples were then transferred to 25 mm diameter cluster plate well for photolysis. The cluster plates were placed on aluminium blocks, pre-cooled to -20° C., and illuminated from above with a 40 W ultraviolet light source (Phillips, γmax =350 nm) at a distance of 10 cm for 2 min. The guinea-pig lung membranes were then recovered from 1 ml sample aliquots by centrifugation at 150,000×g for 15 min at 4° C. and solubilized in sodium dodecyl sulphate polyacrylamide gel electrophoresis (SDS-PAGE) sample buffer prior to resolution of the proteins by SDS-PAGE (Laemmli, 1970). Protein bands were visualized by Coomassie Blue staining while radiolabelled proteins were identified by autoradiography of dried gels and quantified by laser densitometry (Molecular Dynamics, ImageQuant).
The TXIP solubilized samples were centrifuged at 14,000×g for 15 min at 4° C. and the supernatant mixed directly with 50 μl of non-immune rabbit serum or RAGpAlb premixed for 15 min at 4° C. with 80 μl of protein A-Sepharose (50 mg/ml in TXIP). […] The final immunocomplex was dissociated by resuspension in SDS-PAGE sample buffer for 5 min at 95° C. and analysed by SDS-PAGE and autoradiography of the dried gels. […]

[6] = tested on: 45 kDa guinea-pig lung membrane protein; test: Deglycosylation of the photoaffinity labelled 45 kDa guinea-pig lung membrane protein by N-Glycosidase F; assay type: biochemical; conditions: 1 μM LTD4
Procedure: FIG. 10. […] Following photolysis the guinea-pig lung membranes were recovered from 1 ml sample aliquots by centrifugation at 150,000×g for 15 min at 4° C. The membranes were then solubilized in 20 μl of incubation buffer (20 mM NaHPO4, pH 7.4, containing 10 mM EDTA and 1 % (v/v) 2-mercaptoethanol) containing 1 % (w/v) SDS. The solubilized preparation was then diluted with incubation buffer to a final volume of 200 μl containing 1 % (w/v) octylglucoside and 0-60 U / ml of recombinant N-Glycosidase F, and incubated overnight at room temperature. Samples were further diluted in 3-fold concentrated SDS sample buffer and analysed by SDS-PAGE, followed by autoradiography. […] The migration of the molecular weight standards is indicated on the left.
In every case the only detectable product was the 40 kDa protein. […] This is also supported by qualitative evidence since the radiolabelled precursor migrated as a diffuse band during SDS-PAGE, behaviour typical of glycoproteins, while the deglycosylated product migrated as a more focused band.

Structure (SMILES)	maximum number of binding sites (Bmax) ([1]; Scatchard, single site) [fmol/mg protein]	Kd ([1]; read-out: equilibrium dissociation constant (KD)) [nM]	dissociation of binding by 1 μM LTD4 ([2]; 1 μM LTD4, additional 50 min incubation)	association: time to reach equilibrium ([2]; guinea-pig lung membranes) [min]	dissociation of binding by 1 μM LTD4 with 10 μM GTPγS ([2]; to non-specific levels)	fraction of added radioligand bound to guinea-pig lung membranes [3]	stability of radioligand ([4]; room temperature, lung membrane, pH 7.4)	recovery of radioactive material following RP-HPLC ([4]; bound and unbound fractions after incubation with lung membrane, 60 pM)	radiolabelling of 66.2 kDa protein (selectivity) [5]	presence of radiolabelled precursor and product after pretreatment with LTD4 [6]
CCCCC/C=C\C\C=C/C=C/C=C/[C@@H](SC[C@H](NC(=O)CCCCCNC(=O)c1cc([125I])c(N=[N+]=[N-])cc1O)C(=O)NCC(=O)O)[C@@H](O)CCCC(=O)O [[^125 I]Azido-LTD4]	1000	0.2	approximately 50%	60	almost instantaneous and complete dissociation	10-20%	completely stable	approximately 100%	non-selectively labelled	–
CCCCC/C=C\C\C=C/C=C/C=C/[C@@H](SC[C@H](N)C(=O)NCC(=O)O)[C@@H](O)CCCC(=O)O [LTD4]	–	–	–	–	–	–	–	–	–	not present
